Results on nine molecules are retold here after US20260022142A1, “MACROCYCLIC IMMUNOMODULATORS” (Bristol-Myers Squibb Company, priority 2022, published 2026).

Molecules are shown by their SMILES. Bridge positions count the residues as written; N and C are the ends. Square brackets hold non-standard residues; d marks the D form. Peptide text beside a SMILES is read from it. * marks the point of attachment. ξ: configuration not given here. Phe(4-COOH) = N[C@@H](Cc1ccc(C(=O)O)cc1)C(=O)O; Bip = N[C@@H](Cc1ccc(-c2ccccc2)cc1)C(=O)O; Phe(4-NH2) = Nc1ccc(C[C@H](N)C(=O)O)cc1; Phe(3-Me) = Cc1cccc(C[C@H](N)C(=O)O)c1; hArg = N=C(N)NCCCC[C@H](N)C(=O)O; 3Pal = N[C@@H](Cc1cccnc1)C(=O)O; Cha = N[C@@H](CC1CCCCC1)C(=O)O; Cit = NC(=O)NCCC[C@H](N)C(=O)O; Thr(3ξ) = CC(O)[C@H](N)C(=O)O; 12Ado = NCCCCCCCCCCCC(=O)O; hSer = N[C@@H](CCO)C(=O)O; Carboxymethyl = O=C(O)C*; Orn = NCCC[C@H](N)C(=O)O; Aun = NCCCCCCCCCCC(=O)O; Dab = NCC[C@H](N)C(=O)O; Dap = NC[C@H](N)C(=O)O; AEEA = NCCOCCOCC(=O)O; Ac3c = NC1(C(=O)O)CC1

For the assay, the target named is T1, PD-1/PD-L1 interaction (PE-labeled human PD-L1-Ig binding to Jurkat cell line over-expressing human PD-1) (Homo sapiens, UniProt Q15116).
T1 construct: expressed in transfected cells; host or cells: Jurkat
T1 sequence (Q15116 25-288): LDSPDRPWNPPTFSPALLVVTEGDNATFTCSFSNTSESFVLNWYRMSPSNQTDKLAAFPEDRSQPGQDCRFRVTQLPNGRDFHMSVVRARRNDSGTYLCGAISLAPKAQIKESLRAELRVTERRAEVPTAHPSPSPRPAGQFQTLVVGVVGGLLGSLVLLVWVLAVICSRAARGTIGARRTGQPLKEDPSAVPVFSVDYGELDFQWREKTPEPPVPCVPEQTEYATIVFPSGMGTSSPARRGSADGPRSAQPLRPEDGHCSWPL
The assay is described as follows: Jurkat-PD-1 Cell Binding High-Content Screening Assay (CBA). It is filed as cell-based. Particulars: Jurkat cell line over-expressing human PD-1; PE-labeled PD-L1-Ig 20 nM final; read-out: Jurkat hPD1-PDL1 IC50. In a few lines:
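Binding of fluorescent PD-L1-Ig (phycoerythrin on Ig tag, 20 nM final, 1 h) measured by high-content imaging of fixed, Hoechst-counterstained Jurkat-hPD-1 cells. Compound added 2 h at 37° C beforehand, in DMEM with 10% fetal calf serum.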
By IC50 is commonly meant the concentration that gives 50% inhibition. Consider `Cc1cccc(C[C@@H]2NC(=O)[C@H](CC(=O)O)NC(=O)[C@H](Cc3ccc(OCC(=O)O)cc3)NC(=O)[C@H](CN)NC(=O)CSC[C@@H](C(=O)N[C@@H](CCN)C(=O)NCCCCCCCCCCC(=O)O)NC(=O)[C@H](Cc3cccnc3)NC(=O)[C@H](C(C)C)NC(=O)[C@H](CC3CCCCC3)NC(=O)[C@H](CCN)NC(=O)[C@@H](CC(C)C)NC(=O)[C@H](CCCN)NC(=O)[C@H](Cc3ccc(O)cc3)NC(=O)[C@H](Cc3ccc(-c4ccccc4)cc3)NC(=O)[C@H](C(C)C)NC2=O)c1` [Compound 2766] ({CH2CO}-[Dap]Y(Carboxymethyl)D[Phe(3-Me)]V[Bip]Y[Orn][dL][Dab][Cha]V[3Pal]C[Dab][Aun]-OH; thioether N-14), for which the IC50 turned out to be 55.9 nM.
Next, `Cc1cccc(C[C@@H]2NC(=O)[C@H](CC(=O)O)NC(=O)[C@H](Cc3ccc(C(=O)O)cc3)NC(=O)[C@H](Cc3ccc(OCC(=O)O)cc3)NC(=O)CSC[C@@H](C(=O)NCCOCCOCC(=O)NCCCCCCCCCCC(=O)O)NC(=O)[C@H](CCO)NC(=O)[C@H](C(C)C)NC(=O)[C@H](CC3CCCCC3)NC(=O)[C@H](CCN)NC(=O)[C@@H](CC(C)C)NC(=O)[C@H](CCCN)NC(=O)[C@H](C(C)C)NC(=O)[C@H](Cc3ccc(-c4ccccc4)cc3)NC(=O)[C@H](C(C)C)NC2=O)c1` [Compound 3327] ({CH2CO}-Y(Carboxymethyl)[Phe(4-COOH)]D[Phe(3-Me)]V[Bip]V[Orn][dL][Dab][Cha]V[hSer]C[AEEA][Aun]-OH; thioether N-14): 31.4 nM; `Cc1cccc(C[C@@H]2NC(=O)[C@H](CC(=O)O)NC(=O)[C@H](Cc3ccc(OCC(=O)O)cc3)NC(=O)[C@H](CCCCNC(=N)N)NC(=O)CSC[C@@H](C(=O)NCCOCCOCC(=O)N[C@@H](CCN)C(=O)NCCCCCCCCCCC(=O)O)NC(=O)[C@H](CCCN)NC(=O)[C@H](C(C)C)NC(=O)[C@H](CC3CCCCC3)NC(=O)[C@H](CCN)NC(=O)[C@@H](CC(C)C)NC(=O)[C@H](CCCN)NC(=O)[C@H](C(C)C)NC(=O)[C@H](Cc3ccc(-c4ccccc4)cc3)NC(=O)[C@H](C(C)C)NC2=O)c1` [Compound 3248] ({CH2CO}-[hArg]Y(Carboxymethyl)D[Phe(3-Me)]V[Bip]V[Orn][dL][Dab][Cha]V[Orn]C[AEEA][Dab][Aun]-OH; thioether N-14): 3.6 nM; `Cc1cccc(C[C@@H]2NC(=O)[C@H](CC(=O)O)NC(=O)[C@H](Cc3ccc(OCC(=O)O)cc3)NC(=O)[C@H](CCCNC(=N)N)NC(=O)CSC[C@@H](C(=O)NC3(C(=O)NCCCCCCCCCCC(=O)O)CC3)NC(=O)[C@H]([C@@H](C)O)NC(=O)[C@H](C(C)C)NC(=O)[C@H](CC3CCCCC3)NC(=O)[C@H](CCN)NC(=O)[C@@H](CC(C)C)NC(=O)[C@H](CCCNC(N)=O)NC(=O)[C@H](Cc3ccc(OCC(=O)O)cc3)NC(=O)[C@H](Cc3ccc(-c4ccccc4)cc3)NC(=O)[C@H](Cc3ccc(OCC(=O)O)cc3)NC2=O)c1` [Compound 2162] ({CH2CO}-RY(Carboxymethyl)D[Phe(3-Me)]Y(Carboxymethyl)[Bip]Y(Carboxymethyl)[Cit][dL][Dab][Cha]VTC[Ac3c][Aun]-OH; thioether N-14): 12.9 nM.
In the case of `Cc1cccc(C[C@@H]2NC(=O)[C@H](CC(=O)O)NC(=O)[C@H](Cc3ccc(OCC(=O)O)cc3)NC(=O)[C@H](CN)NC(=O)CSC[C@@H](C(=O)N[C@@H](CCN)C(=O)NCCCCCCCCCCC(=O)O)NC(=O)[C@@H](CO)NC(=O)[C@H](C(C)C)NC(=O)[C@H](CC3CCCCC3)NC(=O)[C@H](CCN)NC(=O)[C@@H](CC(C)C)NC(=O)[C@H](CCCN)NC(=O)[C@H](CCCNC(N)=O)NC(=O)[C@H](Cc3ccc(-c4ccccc4)cc3)NC(=O)[C@H](C(C)C)NC2=O)c1` [Compound 2000] ({CH2CO}-[Dap]Y(Carboxymethyl)D[Phe(3-Me)]V[Bip][Cit][Orn][dL][Dab][Cha]V[dS]C[Dab][Aun]-OH; thioether N-14), the IC50 was determined as 14.3 nM.
`Cc1cccc(C[C@@H]2NC(=O)[C@H](CC(=O)O)NC(=O)[C@H](Cc3ccc(OCC(=O)O)cc3)NC(=O)[C@H](CN)NC(=O)CSC[C@@H](C(=O)N[C@@H](CCN)C(=O)NCCCCCCCCCCC(=O)O)NC(=O)[C@H](Cc3ccc(O)cc3)NC(=O)[C@H](C(C)C)NC(=O)[C@H](CC(C)C)NC(=O)[C@H](CCN)NC(=O)[C@@H](CC(C)C)NC(=O)[C@H](CCCN)NC(=O)[C@H](Cc3ccc(O)cc3)NC(=O)[C@H](Cc3ccc(-c4ccccc4)cc3)NC(=O)[C@H](C(C)C)NC2=O)c1` [Compound 2758] ({CH2CO}-[Dap]Y(Carboxymethyl)D[Phe(3-Me)]V[Bip]Y[Orn][dL][Dab]LVYC[Dab][Aun]-OH; thioether N-14): the IC50 is 99.1 nM.
Regarding `Cc1cccc(C[C@@H]2NC(=O)[C@H](CC(=O)O)NC(=O)[C@H](Cc3ccc(OCC(=O)O)cc3)NC(=O)[C@H](CN)NC(=O)CSC[C@@H](C(=O)N[C@@H](CCN)C(=O)NCCOCCOCC(=O)NCCCCCCCCCCC(=O)O)NC(=O)[C@H](CCCN)NC(=O)[C@H](C(C)C)NC(=O)[C@H](CC3CCCCC3)NC(=O)[C@H](CCN)NC(=O)[C@@H](CC(C)C)NC(=O)[C@H](CCCN)NC(=O)[C@H](Cc3ccc(O)cc3)NC(=O)[C@H](Cc3ccc(-c4ccccc4)cc3)NC(=O)[C@H](Cc3ccc(N)cc3)NC2=O)c1` [Compound 2065] ({CH2CO}-[Dap]Y(Carboxymethyl)D[Phe(3-Me)][Phe(4-NH2)][Bip]Y[Orn][dL][Dab][Cha]V[Orn]C[Dab][AEEA][Aun]-OH; thioether N-14), the IC50 was 4.8 nM.
On to `CC(=O)NCCCC[C@H](NC(=O)[C@@H]1CSCC(=O)N[C@@H](CCN)C(=O)N[C@@H](Cc2ccc(OCC(=O)O)cc2)C(=O)N[C@@H](CC(=O)O)C(=O)N[C@@H](Cc2cccc(C)c2)C(=O)N[C@@H](C(C)C)C(=O)N[C@@H](Cc2ccc(-c3ccccc3)cc2)C(=O)N[C@@H](CCCNC(N)=O)C(=O)N[C@@H](CCCN)C(=O)N[C@H](CC(C)C)C(=O)N[C@@H](CN)C(=O)N[C@@H](CC2CCCCC2)C(=O)N[C@@H](C(C)C)C(=O)N[C@@H](C(C)O)C(=O)N1)C(=O)NCCCCCCCCCCC(=O)O` (stereo partly drawn) [Compound 3563] ({CH2CO}-[Dab]Y(Carboxymethyl)D[Phe(3-Me)]V[Bip][Cit][Orn][dL][Dap][Cha]V[Thr(3ξ)]CK(Ac)[Aun]-OH; thioether N-14), for which the IC50 was determined as 43.9 nM.
Next, `CC(C)C[C@H]1NC(=O)[C@H](CCCN)NC(=O)[C@H](C(C)C)NC(=O)[C@H](Cc2ccc(-c3ccccc3)cc2)NC(=O)[C@H](C(C)C)NC(=O)[C@H](Cc2c[nH]c3ccccc23)NC(=O)[C@H](CC(=O)O)NC(=O)[C@H](Cc2ccc(OCC(=O)O)cc2)NC(=O)[C@H](CCCCNC(=N)N)NC(=O)CSC[C@@H](C(=O)N[C@@H](CCCN)C(=O)NCCCCCCCCCCCC(=O)O)NC(=O)[C@H](CO)NC(=O)[C@H](C(C)C)NC(=O)[C@H](CC2CCCCC2)NC(=O)[C@H](CC(N)=O)NC1=O` [Compound 3156] ({CH2CO}-[hArg]Y(Carboxymethyl)DWV[Bip]V[Orn][dL]N[Cha]VSC[Orn][12Ado]-OH; thioether N-14): 34.5 nM.
